{"source": "patent US12569437B2", "about": "“Disease-site-specific liposomal formulation” (Osaka University, priority 2017, dated 2026)", "tested_on": "rat monocrotaline (MCT)-induced severe heart failure (pulmonary hypertension) model", "assay": "Survival rate in rat monocrotaline-induced pulmonary hypertension model", "type": "in vivo", "details": "42 days after MCT; oral 50 mg/kg × twice/day from day 7", "text": "The produced Formulation 21 (ONO-1301Lipo formulation) as a test substance was intermittently administered intravenously once weekly to a rat monocrotaline (MCT)-induced severe heart failure (pulmonary hypertension) model from day 7 of the MCT administration, and the survival rate was compared with a group in which compound (A) (ONO-1301) was repeatedly orally administered; a group in which compound (A) was intermittently administered intravenously once weekly; and, as a positive control, a group in which an ET-1 antagonist (bosentan) was orally administered. In the control group, physiological saline (vehicle) was administered once weekly by intravenous administration.\nFor animals, Slc: Wistar male rats, 5 weeks old at the start of the test, and 66.4 to 90.8 g at arrival (Japan SLC, Inc.) were used. Monocrotaline (hereinafter referred to as “MCT”), lot No.: SLBG1999V (Sigma-Aldrich Corporation), was administered once subcutaneously at the back of the rats at a dose of 60 mg/kg. Six days after the MCT administration, the animals were divided into groups according to the weight stratification assignment method (Table 19)."}
{"smiles": "COc1ccccc1Oc1c(NS(=O)(=O)c2ccc(C(C)(C)C)cc2)nc(-c2ncccn2)nc1OCCO", "note": "[Bosentan]", "values": [{"measurement": "Survival rate (%)", "result": 30, "unit": "%"}]}
